We go through 23 molecules from US10065970B2 (Genentech, Inc., priority 2015, dated 2018).

Each structure is given as a SMILES string. Bounds are passed on as bounds.

In this assay the target is PI3Kα (alpha) (Homo sapiens (Human), UniProt P42336). Description: p110α (alpha) PI3K Binding Assay (ADP-Glo lipid kinase reaction). The format is biochemical. The conditions noted are these: PI3K alpha 0.2 nM, ATP 40 μM, PIP2:3PS 50 μM, 120 min, room temperature; Ki by Morrison Equation; read-out: PI3Kα-(alpha) ATP (Ki) micromolar. The procedure: The ability of a compound of the invention to act as an inhibitor of PI3Kα was determined using the methods of Example 901.
PI3Kα (alpha), sequence (P42336 whole entry): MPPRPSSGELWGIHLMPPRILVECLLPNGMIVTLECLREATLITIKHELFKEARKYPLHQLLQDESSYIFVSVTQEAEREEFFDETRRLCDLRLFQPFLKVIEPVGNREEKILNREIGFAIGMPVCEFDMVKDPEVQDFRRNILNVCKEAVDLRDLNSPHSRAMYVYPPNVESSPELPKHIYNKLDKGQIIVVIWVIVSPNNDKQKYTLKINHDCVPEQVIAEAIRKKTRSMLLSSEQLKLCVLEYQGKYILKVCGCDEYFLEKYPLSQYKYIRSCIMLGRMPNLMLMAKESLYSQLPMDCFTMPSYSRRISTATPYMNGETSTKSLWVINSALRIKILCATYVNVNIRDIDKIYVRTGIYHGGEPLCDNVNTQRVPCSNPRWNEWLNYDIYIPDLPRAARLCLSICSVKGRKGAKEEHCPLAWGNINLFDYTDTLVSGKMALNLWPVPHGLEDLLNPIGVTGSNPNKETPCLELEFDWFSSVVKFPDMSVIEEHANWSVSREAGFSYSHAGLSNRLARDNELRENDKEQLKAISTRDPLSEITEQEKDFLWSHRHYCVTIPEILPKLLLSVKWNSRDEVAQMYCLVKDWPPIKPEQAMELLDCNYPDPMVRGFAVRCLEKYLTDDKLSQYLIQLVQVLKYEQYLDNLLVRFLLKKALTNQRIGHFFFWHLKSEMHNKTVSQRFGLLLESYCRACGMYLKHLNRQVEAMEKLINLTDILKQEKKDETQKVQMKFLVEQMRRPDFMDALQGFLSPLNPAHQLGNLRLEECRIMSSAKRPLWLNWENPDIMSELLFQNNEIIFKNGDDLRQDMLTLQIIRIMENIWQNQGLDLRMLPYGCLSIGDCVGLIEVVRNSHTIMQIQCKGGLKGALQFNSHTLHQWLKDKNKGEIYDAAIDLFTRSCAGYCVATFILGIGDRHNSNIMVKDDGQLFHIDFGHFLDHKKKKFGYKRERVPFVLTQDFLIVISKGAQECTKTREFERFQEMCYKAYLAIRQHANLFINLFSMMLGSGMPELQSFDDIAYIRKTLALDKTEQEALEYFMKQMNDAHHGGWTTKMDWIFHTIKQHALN
PI3Kα (alpha), sequence (P27986 whole entry partner): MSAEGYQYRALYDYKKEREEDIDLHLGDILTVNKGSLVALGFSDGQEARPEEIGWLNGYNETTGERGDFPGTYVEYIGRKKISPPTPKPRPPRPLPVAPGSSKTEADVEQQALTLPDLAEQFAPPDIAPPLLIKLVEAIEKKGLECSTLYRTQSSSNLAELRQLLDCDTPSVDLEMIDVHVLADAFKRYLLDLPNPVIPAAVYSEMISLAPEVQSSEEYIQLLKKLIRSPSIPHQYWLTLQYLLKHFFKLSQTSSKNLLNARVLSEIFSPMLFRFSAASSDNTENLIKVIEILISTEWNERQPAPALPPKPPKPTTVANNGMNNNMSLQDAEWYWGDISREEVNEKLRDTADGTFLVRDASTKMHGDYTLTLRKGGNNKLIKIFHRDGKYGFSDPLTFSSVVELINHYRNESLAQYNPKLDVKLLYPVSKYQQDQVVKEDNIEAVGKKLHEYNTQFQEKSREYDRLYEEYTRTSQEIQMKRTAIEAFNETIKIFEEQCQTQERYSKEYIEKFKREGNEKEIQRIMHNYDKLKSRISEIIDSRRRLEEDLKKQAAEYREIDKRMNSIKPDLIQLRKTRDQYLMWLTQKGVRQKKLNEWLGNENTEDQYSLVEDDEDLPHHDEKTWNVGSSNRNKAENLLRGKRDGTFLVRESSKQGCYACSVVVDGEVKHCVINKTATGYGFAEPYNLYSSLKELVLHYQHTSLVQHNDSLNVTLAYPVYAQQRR
PI3K Binding assays are intended for determining the biochemical potency of small molecule PI3K inhibitors. The PI3K lipid kinase reaction is performed in the presence of PIP2:3PS lipid substrate (Promega #V1792) and ATP. Following the termination if the kinase reaction, turnover of ATP to ADP by the phosphorylation of the lipid substrate is detected using the Promega ADP-Glo™ (Promega #V1792) assay. Reactions are carried out using the following conditions:
After 120 minutes of reaction time, the kinase reaction is terminated. Any ATP remaining after the reaction is depleted, leaving only ADP. Then the Kinase Detection Reagent is added to convert ADP to ATP, which is used in a coupled luciferin/luciferase reaction. The luminescent output is measured and is correlated with kinase activity.
All reactions are carried out at room temperature. A 3 μl mixture (1:1) of enzyme/lipid substrate solution is added to a 384 well white assay plate (Perkin Elmer #6007299) containing 50 nl of test compound or DMSO only for untreated controls. The reaction is started by the addition of 2 μl ATP/MgCl2. The kinase reaction buffer contains 50 mM HEPES, 50 mM NaCl, 3 mM MgCl2, 0.01% BSA, 1% DMSO, and enzyme and substrate concentrations as indicated in the above table. The reaction is stopped by the addition of 10 μL ADP-Glo reagent. Plates are read in a Perkin Elmer Envision system using luminescence mode. 10 point dose response curves are generated for each test compound. Ki values for each compound are determined using the Morrison Equation.
In general terms: ADP-Glo turns the ADP formed in a reaction into a luminescent signal.

A word on the Ki: it is the dissociation constant of the complex between target and ligand, obtained from inhibition or displacement. Turning to `C[C@H](Oc1cc2c3c(c1)nc(-c1ccc4oc(N)nc4c1)n3CCCCO2)C(N)=O` [Example 204, (S)-2-((1-(2-Aminobenzo[d]oxazol-5-yl)-7,8,9,10-tetrahydro-6-oxa-2,10a-diazacycloocta[cd]inden-4-yl)oxy)propanamide], the Ki is < 20 pM.

As to `C[C@H](Oc1cc2c3c(c1)nc(-c1cc4sc(N)nc4cc1F)n3CCCCO2)C(N)=O` (single isomer, unassigned) [Example 277], the Ki amounted to 208 pM. As for `C[C@@H](Oc1cc2c3c(c1)nc(-c1ccc4nc(N)sc4c1F)n3CCCCO2)C(N)=O` (single isomer, unassigned) [Example 287], the figure is 1710 pM; as for `C[C@H](Oc1cc2c3c(c1)nc(-c1ccc4oc(N)nc4c1)n3CCCCO2)C(=O)O` [Example 297, (S)-2-((1-(2-Aminobenzo[d]oxazol-5-yl)-7,8,9,10-tetrahydro-6-oxa-2,10a-diazacycloocta[cd]inden-4-yl)oxy)propanoic acid], 2230 pM; as for `NC(=O)[C@@H](Nc1cc2c3c(c1)nc(-c1ccnc4sccc14)n3CCCO2)C1CC1` [Example 177, (S)-2-Cyclopropyl-2-((1-(thieno[2,3-b]pyridin-4-yl)-8,9-dihydro-7H-6-oxa-2,9a-diazabenzo[cd]azulen-4-yl)amino)acetamide], 234000 pM.

Turning to `NC(=O)[C@@H](Nc1cc2c3c(c1)nc(-c1cn[nH]c1)n3CCCO2)C1CC1` [Example 212, (S)-2-((1-(1H-Pyrazol-4-yl)-8,9-dihydro-7H-6-oxa-2,9a-diazabenzo[cd]azulen-4-yl)amino)-2-cyclopropylacetamide], the inhibitory constant (Ki) was found to be 148000 pM. As for `CC[C@H](Oc1cc2c3c(c1)nc(-c1cc(F)c(-c4ncn[nH]4)cc1F)n3CCCCO2)C(N)=O` [Example 295, (S)-2-((1-(2,5-Difluoro-4-(1H-1,2,4-triazol-5-yl)phenyl)-7,8,9,10-tetrahydro-6-oxa-2,10a-diazacycloocta[cd]inden-4-yl)oxy)butanamide], the figure is 53 pM. For `C[C@@H]1Cn2c(-c3ccc4oc(N)nc4c3)nc3cc(N[C@H](C(N)=O)C4CC4)cc(c32)O1` [Example 238, (S)-2-(((R)-2-(2-Aminobenzo[d]oxazol-5-yl)-4-methyl-3,4-dihydro-5-oxa-1,2a-diazaacenaphthylen-7-yl)amino)-2-cyclopropylacetamide] the value was 45 pM. As for `NC(=O)[C@@H](Nc1cc2c3c(c1)nc(-c1cnc4c(c1)OCCO4)n3CCCO2)C1CC1` [Example 148, (S)-2-Cyclopropyl-2-((1-(2,3-dihydro-[1,4]dioxino[2,3-b]pyridin-7-yl)-8,9-dihydro-7H-6-oxa-2,9a-diazabenzo[cd]azulen-4-yl)amino)acetamide], the figure is 59000 pM; as for `NC(=O)[C@@H](Nc1cc2c3c(c1)nc(-c1cc(F)c4nccnc4c1)n3CCCO2)C1CC1` [Example 215, (S)-2-Cyclopropyl-2-((1-(8-fluoroquinoxalin-6-yl)-8,9-dihydro-7H-6-oxa-2,9a-diazabenzo[cd]azulen-4-yl)amino)acetamide], 424 pM; as for `C[C@H](Oc1cc2c3c(c1)nc(-c1cc(F)c4oc(N)nc4c1)n3CCCCO2)C(N)=O` [Example 249, (S)-2-((1-(2-Amino-7-fluorobenzo[d]oxazol-5-yl)-7,8,9,10-tetrahydro-6-oxa-2,10a-diazacycloocta[cd]inden-4-yl)oxy)propanamide], < 20 pM. In the case of `NC(=O)[C@@H](Nc1cc2c3c(c1)nc(-c1ccc4nc(N)sc4c1)n3CCCCO2)C1CC1` [Example 214, (S)-2-((1-(2-Aminobenzo[d]thiazol-6-yl)-7,8,9,10-tetrahydro-6-oxa-2,10a-diazacycloocta[cd]inden-4-yl)amino)-2-cyclopropylacetamide], the Ki is < 20 pM. Take `NC(=O)[C@@H](Nc1cc2c3c(c1)nc(-c1cncs1)n3CCCO2)C1CC1` [Example 136, (S)-2-Cyclopropyl-2-((1-(thiazol-5-yl)-8,9-dihydro-7H-6-oxa-2,9a-diazabenzo[cd]azulen-4-yl)amino)acetamide]: the Ki stood at 76400 pM. For the molecule `NC(=O)[C@@H](Nc1cc2c3c(c1)nc(-c1ccc4oc(=O)[nH]c4c1)n3CCCO2)C1CC1` [Example 196, (S)-2-Cyclopropyl-2-((1-(2-oxo-2,3-dihydrobenzo[d]oxazol-5-yl)-8,9-dihydro-7H-6-oxa-2,9a-diazabenzo[cd]azulen-4-yl)amino)acetamide], the Ki is 314000 pM. As for `OCc1nc2cc(-c3nc4cc(Br)cc5c4n3CCCO5)ccc2o1` [Example 168, (5-(4-Bromo-8,9-dihydro-7H-6-oxa-2,9a-diazabenzo[cd]azulen-1-yl)benzo[d]oxazol-2-yl)methanol], the figure is 402000 pM. For `C[C@H](C(N)=O)n1cc(-c2cc3c4c(c2)nc(-c2ccc5oc(N)nc5c2)n4CCCO3)cn1` [Example 218, (R)-2-(4-(1-(2-Aminobenzo[d]oxazol-5-yl)-8,9-dihydro-7H-6-oxa-2,9a-diazabenzo[cd]azulen-4-yl)-1H-pyrazol-1-yl)propanamide] the value was 143 pM; for `C[C@@H](Nc1cc2c3c(c1)nc(-c1ccc4oc(N)nc4c1)n3CCCO2)C(N)=O` [Example 107, (R)-2-((1-(2-Aminobenzo[d]oxazol-5-yl)-8,9-dihydro-7H-6-oxa-2,9a-diazabenzo[cd]azulen-4-yl)amino)propanamide], 580 pM; for `NC(=O)[C@@H](Nc1cc2c3c(c1)nc(-c1cccc(OC(F)F)c1)n3CCCO2)C1CC1` [Example 143, (S)-2-Cyclopropyl-2-((1-(3-(difluoromethoxy)phenyl)-8,9-dihydro-7H-6-oxa-2,9a-diazabenzo[cd]azulen-4-yl)amino)acetamide], 187000 pM. As for `CCc1cc(-c2nc3cc(N[C@H](C(N)=O)C4CC4)cc4c3n2CCCO4)cc2nc(N)oc12` [Example 225, (S)-2-((1-(2-Amino-7-ethylbenzo[d]oxazol-5-yl)-8,9-dihydro-7H-6-oxa-2,9a-diazabenzo[cd]azulen-4-yl)amino)-2-cyclopropylacetamide], the inhibition constant (Ki) amounted to 431 pM. As for `CC[C@H](Oc1cc2c3c(c1)nc(-c1ccc4oc(N)nc4c1)n3CCCCO2)C(N)=O` [Example 271, (S)-2-((1-(2-Aminobenzo[d]oxazol-5-yl)-7,8,9,10-tetrahydro-6-oxa-2,10a-diazacycloocta[cd]inden-4-yl)oxy)butanamide], the figure is < 20 pM; as for `C[C@H](Oc1cc2c3c(c1)nc(-c1ccc4nc(N)sc4c1)n3CCCCO2)C(N)=O` [Example 248, (S)-2-((1-(2-Aminobenzo[d]thiazol-6-yl)-7,8,9,10-tetrahydro-6-oxa-2,10a-diazacycloocta[cd]inden-4-yl)oxy)propanamide], 30 pM.

On to `C[C@@H]1Cn2c(-c3ccc4oc(N)nc4c3)nc3cc(O[C@@H](C)C(N)=O)cc(c32)O1` [Example 252, (S)-2-(((R)-2-(2-Aminobenzo[d]oxazol-5-yl)-4-methyl-3,4-dihydro-5-oxa-1,2a-diazaacenaphthylen-7-yl)oxy)propanamide], for which the Ki worked out at 221 pM. For `COc1ccc(-c2nc3cc(N[C@H](C(N)=O)C4CC4)cc4c3n2CCCO4)cc1OC(F)F` [Example 163, (S)-2-Cyclopropyl-2-((1-(3-(difluoromethoxy)-4-methoxyphenyl)-8,9-dihydro-7H-6-oxa-2,9a-diazabenzo[cd]azulen-4-yl)amino)acetamide] the value was 34200 pM.
